Measurements reported in patent US20140171358A1, “ANTIMICROBIAL COMPOSITIONS COMPRISING DGLA AND NEOMYCIN SULFATE AND METHODS OF USE THEREOF” (Dignity Sciences Limited, priority 2012, published 2014).
Like-named read-outs stand apart in the source and are kept apart here.

Test system: P. acnes
Assay: agar dilution method: growth index and MIC on P. acnes (single compounds and combinations)
Type: cell-based
Details: for MIC: Cutibacterium acnes; for growth of P. Acnes with the combination compared with 15-HETrE used alone: in combination with 15-HETrE; for growth of P. Acnes with the combination compared with 15-OHEPA used alone: in combination with 15-OHEPA; for growth of P. Acnes with the combination compared with DGLA used alone: in combination with DGLA
Procedure: Several compounds including fatty acids such as DGLA, 15-OHEPA, and 15-HETrE were tested to determine their capacity to inhibit the growth of P. acnes. In an exemplary method, an agar dilution method was used to determine the minimum inhibitory concentration (MIC) of each tested compound. Briefly, the agar dilution method involved preparing a series of concentrations of each compound (e.g., nicotinamide, benzoyl peroxide, adapalene, metronidazole, DGLA, 15-OHEPA, and 15-HETrE) in a Reinforced Clostridial Agar (RCA) media that facilitates growth of P. acnes under anaerobic conditions. An inoculum of P. acnes was prepared by incubation of P. acnes for approximately seven days at 35-37° C. to achieve a ≧1.0 OD600 inoculum of P. acnes in RCM broth. A portion of this inoculum was then added to the surface of each plate as a 10 μL spot and incubated at 35-37° C. for 72 hours or more. Growth of P. acnes was then observed and compared to control plates in which no compound has been added, and positive inhibition plates prepared with erythromycin. […] The growth of P. acnes in the presence of nicotinamide, benzoyl peroxide, adapalene, metronidazole, DGLA, 15-OHEPA, and 15-HETrE was determined with varying concentrations of the compound (see, Table 2). Next, the MIC was determined as the concentration at which a marked reduction (+) occurs in the appearance of growth on the test plate (as per Clinical and Laboratory Standards Institute M11-A7). The compounds tested singly in Example 1 were tested in combination with one another to determine the capacity of the combination to inhibit the growth of P. acnes. In an exemplary method, the MIC was determined for each of the combination as described in Example 1. Briefly, test combinations included DGLA with nicotinamide, benzoyl peroxide, adapalene, or metronidazole; 15-HETrE with nicotinamide, benzoyl peroxide, adapalene, or metronidazole; and 15-OHEPA with nicotinamide, benzoyl peroxide, adapalene, or metronidazole. The tables below show the growth of P. acnes in the presence of 0.4 or 1.0 mg/mL DGLA with varying concentrations of nicotinamide, benzoyl peroxide, adapalene, or metronidazole (Table 3); the growth of P. acnes in the presence of 0.01 or 0.05 mg/mL 15-HETrE with varying concentrations of nicotinamide, benzoyl peroxide, adapalene, or metronidazole (Table 5); and the growth of P. acnes in the presence of 0.5 or 0.1 mg/mL 15-OHEPA with varying concentrations of nicotinamide, benzoyl peroxide, adapalene, or metronidazole (Table 7).

[1] = read-out: MIC (mg/mL) with 0.01 mg/mL 15-HETrE spike
[2] = read-out: MIC (mg/mL) with 0.05 mg/mL 15-OHEPA spike
[3] = with 0.05 mg/mL 15-HETrE (inhibitory concentration), read-out: MIC (mg/mL) with 0.05 mg/mL 15-HETrE spike
[4] = with 0.1 mg/mL 15-OHEPA (inhibitory concentration), read-out: MIC (mg/mL) with 0.1 mg/mL 15-OHEPA spike
[5] = with 0.4 mg/mL dGLA (Sigma), read-out: MIC (mg/mL) with 0.4 mg/mL dGLA spike
[6] = with 1.0 mg/mL dGLA (Cayman), read-out: MIC (mg/mL) with 1.0 mg/mL dGLA spike

| SMILES | MIC (compound alone, read-out: MIC (mg/mL) as per P-11-0007 or P-11-0008 Addendum A) [mg/mL] | MIC [1] [mg/mL] | MIC [2] [mg/mL] | MIC [3] [mg/mL] | MIC [4] [mg/mL] | MIC [5] [mg/mL] | MIC [6] [mg/mL] | growth of P. Acnes with the combination compared with 15-HETrE used alone | growth of P. Acnes with the combination compared with 15-OHEPA used alone | growth of P. Acnes with the combination compared with DGLA used alone |
| --- | --- | --- | --- | --- | --- | --- | --- | --- | --- | --- |
| O=C(OOC(=O)c1ccccc1)c1ccccc1 [Benzoyl Peroxide] | 0.6 to 0.8 | 0.6 to 0.8 | 0.4 to 0.6 | < 0.2 | < 0.2 | 0.2 to 0.4 | 0.2 to 0.4 | did not reduce the growth of P. Acnes below that of 15-HETrE used alone | – | – |
| Cc1ncc([N+](=O)[O-])n1CCO [Metronidazole] | – | > 1 | > 1 | < 0.2 | < 0.2 | > 1 | > 1 | did not reduce the growth of P. Acnes below that of 15-HETrE used alone | did not reduce the growth of P. Acnes below that of 15 OHEPA used alone | did not reduce the growth of P. Acnes below that of DGLA used alone |
| NC(=O)c1cccnc1 [Nicotinamide] | – | 10 to 15 | 10 to 15 | < 1 | < 1 | 10 to 15 | 10 to 15 | did not reduce the growth of P. Acnes below that of 15-HETrE used alone | did not reduce the growth of P. Acnes below that of 15 OHEPA used alone | did not reduce the growth of P. Acnes below that of DGLA used alone |
